# Assay results taken from patent US8541581B2, “Inhibitors of fatty acid amide hydrolase” (Infinity Pharmaceuticals, Inc., priority 2009, dated 2013).
# Molecular target: T1, human FAAH (Homo sapiens, UniProt O00519)
# T1 construct: host or cells: COS-7 cells, transient transfection; 13,000 g membrane fraction solubilized in 1% Triton X-100
# T1 sequence (O00519 1-579): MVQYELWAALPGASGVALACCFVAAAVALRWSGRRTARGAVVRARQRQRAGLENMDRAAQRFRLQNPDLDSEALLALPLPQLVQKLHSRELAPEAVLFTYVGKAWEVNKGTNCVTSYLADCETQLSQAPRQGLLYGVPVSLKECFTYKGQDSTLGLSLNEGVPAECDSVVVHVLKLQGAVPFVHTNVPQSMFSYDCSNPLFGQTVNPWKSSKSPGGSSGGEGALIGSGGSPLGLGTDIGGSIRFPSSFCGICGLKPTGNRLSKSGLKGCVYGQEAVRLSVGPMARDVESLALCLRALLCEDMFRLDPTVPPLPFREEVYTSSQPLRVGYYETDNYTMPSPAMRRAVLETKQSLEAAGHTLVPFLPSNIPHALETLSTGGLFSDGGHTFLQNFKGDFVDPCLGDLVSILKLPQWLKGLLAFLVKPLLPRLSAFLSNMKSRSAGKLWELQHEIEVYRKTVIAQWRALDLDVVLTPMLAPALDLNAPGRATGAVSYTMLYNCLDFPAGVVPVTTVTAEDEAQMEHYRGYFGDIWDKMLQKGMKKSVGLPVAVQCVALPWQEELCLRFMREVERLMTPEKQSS
# Assay: Human FAAH fluorescence-based inhibition assay (AMC Arachidonoyl Amide hydrolysis)
# Format: biochemical
# Conditions: human FAAH from transfected COS-7 cells; 20 μM AMC-Arachidonoyl substrate; 30 min preincubation, 4 hours at room temperature
# Method: Exemplary compounds are set forth in the Examples provided below. Compounds were assayed as inhibitors of human FAAH using the method described in detail in Example 19.
# The following assays can be used to determine the inhibition of FAAH: (1) a fluorescence-based assay (Manjunath et al., Analytical Biochemistry (2005) 343:143-151); and (2) a microsome-based fluorescent assay (Wang et al., Biomolecular Screening (2006) 1-9).
# COS-7 cells were split the day before, 1:5 into 150 mm×25 mm cell culture dishes (Corning Inc., Cat. No. 430599). Transient transfection took place at 30-40% confluency according to FuGENE 6 Transfection Reagent (Roche, Cat. No. 11814 443 001).
# The FuGENE transfection 6 reagent (45 uL) was added to 1410 μL of media (DMEM, serum free without pen/strep) in a 15 mL conical tube and incubated at room temp for 5 minutes, followed by the addition of FAAH plasmid DNA ([…]) (OriGene Cat. No. TC119221, Genbank Accession No. NM_001441.1, 0.67 ug/uL) and a further incubation of 15 minutes at room temperature. The resulting solution was added into one dish of 30-40% confluent COS-7 cells in a drop-wise manner. The COS-7 cell dish was subsequently incubated for 48 hours. The cells were then harvested.
# Media was aspirated from the dishes and the cells rinsed with 10 mL PBS. The PBS was removed and 3 mL of PBS added to the dish. The dish was scraped to resuspend the cells, and the subsequent cell suspension collected into a 15 mL conical tube. The cells were pelleted by centrifugation at 1200 rpm for 5 minutes in a bench top centrifuge. PBS was removed and the cell pellet snap frozen in liquid nitrogen and stored at −80° C.
# COS-7 Cells—FAAH Purification: • (1) Fractionation: Frozen cell pellets from transient transfections were thawed on ice and resuspended in 12.5 mM Hepes pH 8.0, 100 mM NaCl, 1 mM EDTA (10 mL/0.2 g cell pellet). The pellets were dounce homogenized and then sonicated to produce cell extract. The cell extract was subsequently centrifuged at 1000 g to remove cellular debris. The pellet was discarded and the supernatant centrifuged at 13,000 g for 20 minutes. The pellet contained membrane bound FAAH. The supernatant was discarded and the pellet resolubilized. • (2) Re-solubilization: The fraction of interest, (13,000 g, membrane fraction) was re-suspended in 2.3 mL re-suspension buffer (20 mM Hepes pH 7.8, 10% v/v Glycerol, 1 mM EDTA, 1% Triton X-100) and the sample incubated on ice for 1 hour and then centrifuged to remove any particulate matter. The supernatant containing solubilized human FAAH was aliquoted and snap frozen in liquid nitrogen and stored at −80° C. until use. • (3) Characterization: Protein Concentration determined by Bradford assay. • SDS gel and Western blot to confirm presence of FAAH • FAAH activity assay • Km determination—96-well assay • Linear dependence—96-well assay • Standard compound Ki determination—384-well assay
# Rat FAAH biochemical assays were carried out in a 96 well flat bottom black non-treated polystyrene plates (Corning Costar Catalogue #3915). FAAH reaction buffer: 50 mM Hepes (pH 7.5), 1 mM EDTA, 0.2% Triton X-100. FAAH substrate-AMC Arachidonoyl Amide (Cayman Chemicals Company, Catalog #10005098). The reaction was read in an Envision microtiter plate reader [Excitation filter 355 nm (40 nm bandpass); Emission filter 460 nm (25 nm bandpass)]. The raw fluorescence was plotted on the y axis and the inhibitor concentration on the x axis to give a dose response inhibition curve. The data was fitted to a single site competitive inhibition equation, fixing the Km for the rat and human enzyme to 12 μM and 9 μM respectively.
# The principle of this assay was the hydrolysis of AMC-Arichodonoyl, a fluorescent analogue of Anandamide, which results in the formation of Arachidonic acid and AMC. The formation of AMC results in an increase in fluorescence (see, for example, Manjunath et al., Analytical Biochemistry (2005) 343:143-151; and Wang et al., Biomolecular Screening (2006) 1-9). […]
row,Ki [µM],Compound
1,0.1 to 1,CC(C)(C)OC(=O)N1CC=C(B(O)O)CC1 [Example 1]
2,0.01 to 0.1,O=C(OCc1ccccc1)N1CC=C(B(O)O)CC1 [Example 2]
3,> 1,CC(=O)N1CC=C(B(O)O)CC1 [Example 3]
4,0.01 to 0.1,O=C(c1ccc(Cl)cc1)N1CC=C(B(O)O)CC1 [Example 4]
5,0.01 to 0.1,Cc1c(C(=O)N2CC=C(B(O)O)CC2)sc2ccccc12 [Example 5]
6,0.01 to 0.1,Cc1c(CC(=O)N2CC=C(B(O)O)CC2)sc2ccccc12 [Example 6]
7,0.01 to 0.1,O=C(NCc1ccccc1)N1CC=C(B(O)O)CC1 [Example 7]
8,0.01 to 0.1,CC(C)(C)OC(=O)N1CCC(B(O)O)CC1 [Example 8]
9,0.01 to 0.1,O=C(OCc1ccccc1)N1CCC(B(O)O)CC1 [Example 9]
10,0.01 to 0.1,O=C(CCCCc1ccccc1)N1CCC(B(O)O)CC1 [Example 10]
11,0.1 to 1,O=C(c1ccc(Cl)cc1)N1CCC(B(O)O)CC1 [Example 11]
12,0.1 to 1,O=C(c1cnc2ccccc2c1)N1CCC(B(O)O)CC1 [Example 12]
13,0.1 to 1,O=C(c1ccc2ccccc2n1)N1CCC(B(O)O)CC1 [Example 13]
14,> 1,O=C(CNCc1ccccc1)N1CCC(B(O)O)CC1 [Example 14]
15,> 1,O=C([C@H]1CCCN1)N1CCC(B(O)O)CC1 [Example 15]
16,0.1 to 1,Cc1ccc(S(=O)(=O)N2CCC(B(O)O)CC2)cc1 [Example 16]
17,> 1,OB(O)C1CCN(Cc2ccccc2)CC1 [Example 17]
18,0.01 to 0.1,Cc1c(CN2CCC(B(O)O)CC2)sc2ccccc12 [Example 18]
